From ChEMBL document CHEMBL1153550, “In vitro study of Candida tropicalis isolates exhibiting paradoxical growth in the presence of high concentrations of caspofungin” (2007)
≈ marks a conversion by molar mass, not a printed value. Calls of active or inactive are those of the source. No cut-off for these calls is given here.

Columns and labels:
Candida tropicalis [1] = assay: Antifungal activity against > 2 x 10^7 CFU/ml Candida tropicalis isolate 6 in antibiotic medium 3 assessed as partial growth after 24 hrs by broth microdilution method; type: functional, organism-based
Candida tropicalis [2] = assay: Antifungal activity against > 2 x 10^7 CFU/ml Candida tropicalis isolate 3 in antibiotic medium 3 assessed as partial growth after 24 hrs by broth microdilution method; type: functional, organism-based
Candida tropicalis [3] = assay: Antifungal activity against 2 x 10^7 CFU/ml Candida tropicalis isolate 10 in RPMI 1640 medium after 24 hrs by broth microdilution method; type: functional; conditions: isolate 10, 24 h
Candida tropicalis [4] = assay: Antifungal activity against 10^5 CFU/ml Candida tropicalis isolate 2 in RPMI 1640 medium at =< 0.09 ug/ml after 24 hrs followed by incubation in drug free medium for 48 hrs by broth microdilution method; type: functional, organism-based
Candida tropicalis [5] = assay: Antifungal activity against 10^5 CFU/ml Candida tropicalis ATCC 750 in RPMI 1640 medium at 0.4 to 12.5 ug/ml treated for 24 hrs followed by incubation in drug free medium for 48 hrs by broth microdilution method; type: functional, organism-based
Candida tropicalis [6] = assay: Antifungal activity against Candida tropicalis isolate 4 in RPMI 1640 medium assessed as paradoxical growth at 6.25 ug/ml after 48 hrs by broth microdilution method; type: functional, organism-based
Candida tropicalis [7] = assay: Antifungal activity against 2 x 10^7 CFU/ml Candida tropicalis isolate 1 in RPMI 1640 medium after 24 hrs by broth microdilution method; type: functional; conditions: isolate 1, 24 h
Candida tropicalis [8] = assay: Antifungal activity against 10^5 CFU/ml Candida tropicalis isolate 15 in RPMI 1640 medium at 12.5 ug/ml treated for 48 hrs followed by incubation in drug free medium for 48 hrs by broth microdilution method; type: functional, organism-based
Candida tropicalis [9] = assay: Antifungal activity against 10^5 CFU/ml Candida tropicalis isolate 6 in antibiotic medium 3 at 12.5 ug/ml treated for 24 hrs followed by incubation in drug free medium for 48 hrs by broth microdilution method; type: functional, organism-based
Candida tropicalis [10] = assay: Antifungal activity against > 2 x 10^7 CFU/ml Candida tropicalis isolate 11 in RPMI 1640 medium assessed as partial growth after 24 hrs by broth microdilution method; type: functional, organism-based
Candida tropicalis [11] = assay: Antifungal activity against 10^5 CFU/ml Candida tropicalis isolate 10 in RPMI 1640 medium at 12.5 ug/ml treated for 48 hrs followed by incubation in drug free medium for 48 hrs by broth microdilution method; type: functional, organism-based
Candida tropicalis [12] = assay: Antifungal activity against 10^5 CFU/ml Candida tropicalis isolate 14 in RPMI 1640 medium at 12.5 ug/ml treated for 24 hrs followed by incubation in drug free medium for 48 hrs by broth microdilution method; type: functional, organism-based
Candida tropicalis [13] = assay: Antifungal activity against 2 x 10^7 CFU/ml Candida tropicalis isolate 1 in antibiotic medium 3 after 24 hrs by broth microdilution method; type: functional; conditions: isolate 1, 24 h
Candida tropicalis [14] = assay: Antifungal activity against 2 x 10^7 CFU/ml Candida tropicalis isolate 3 in antibiotic medium 3 after 24 hrs by broth microdilution method; type: functional; conditions: isolate 3, 24 h
Candida tropicalis [15] = assay: Antifungal activity against 2 x 10^7 CFU/ml Candida tropicalis isolate 9 in antibiotic medium 3 after 24 hrs by broth microdilution method; type: functional; conditions: isolate 9, 24 h
Candida tropicalis [16] = assay: Antifungal activity against > 2 x 10^7 CFU/ml Candida tropicalis isolate 7 in RPMI 1640 medium assessed as partial growth after 24 hrs by broth microdilution method; type: functional, organism-based
Candida tropicalis [17] = assay: Antifungal activity against 2 x 10^7 CFU/ml Candida tropicalis isolate 14 in antibiotic medium 3 after 24 hrs by broth microdilution method; type: functional; conditions: isolate 14, 24 h
Candida tropicalis [18] = assay: Antifungal activity against 10^5 CFU/ml Candida tropicalis isolate 4 in RPMI 1640 medium at 12.5 ug/ml treated for 48 hrs followed by incubation in drug free medium for 48 hrs by broth microdilution method; type: functional, organism-based
Candida tropicalis [19] = assay: Antifungal activity against Candida tropicalis isolate 7 in RPMI 1640 medium assessed as paradoxical growth at 6.25 ug/ml after 24 hrs by broth microdilution method; type: functional, organism-based
Candida tropicalis [20] = assay: Antifungal activity against 2 x 10^7 CFU/ml Candida tropicalis ATCC 750 in RPMI 1640 medium after 24 hrs by broth microdilution method; type: functional; conditions: ATCC 750, 24 h
Candida tropicalis [21] = assay: Antifungal activity against > 2 x 10^7 CFU/ml Candida tropicalis isolate 5 in antibiotic medium 3 assessed as partial growth after 24 hrs by broth microdilution method; type: functional, organism-based
Candida tropicalis [22] = assay: Antifungal activity against Candida tropicalis isolate 7 in RPMI 1640 medium assessed as paradoxical growth at 12.5 ug/ml after 24 hrs by broth microdilution method; type: functional, organism-based
Candida tropicalis [23] = assay: Antifungal activity against 2 x 10^7 CFU/ml Candida tropicalis isolate 12 in RPMI 1640 medium after 24 hrs by broth microdilution method; type: functional; conditions: isolate 12, 24 h
Candida tropicalis [24] = assay: Antifungal activity against Candida tropicalis isolate 8 in RPMI 1640 medium assessed as paradoxical growth at 12.5 ug/ml after 48 hrs by broth microdilution method; type: functional, organism-based
Candida tropicalis [25] = assay: Antifungal activity against Candida tropicalis ATCC 750 in RPMI 1640 medium assessed as paradoxical growth at 6.25 ug/ml after 24 hrs by broth microdilution method; type: functional, organism-based
Candida tropicalis [26] = assay: Antifungal activity against 2 x 10^7 CFU/ml Candida tropicalis ATCC 750 in antibiotic medium 3 after 24 hrs by broth microdilution method; type: functional; conditions: ATCC 750, 24 h
Candida tropicalis [27] = assay: Antifungal activity against 10^5 CFU/ml Candida tropicalis isolate 7 in RPMI 1640 medium at =< 0.09 ug/ml after 24 hrs followed by incubation in drug free medium for 48 hrs by broth microdilution method; type: functional, organism-based
Candida tropicalis [28] = assay: Antifungal activity against 2 x 10^7 CFU/ml Candida tropicalis isolate 15 in antibiotic medium 3 after 24 hrs by broth microdilution method; type: functional; conditions: isolate 15, 24 h
Candida tropicalis [29] = assay: Antifungal activity against Candida tropicalis isolate 5 in RPMI 1640 medium assessed as paradoxical growth at 6.25 ug/ml after 24 hrs by broth microdilution method; type: functional, organism-based
Candida tropicalis [30] = assay: Antifungal activity against 2 x 10^7 CFU/ml Candida tropicalis isolate 7 in RPMI 1640 medium after 24 hrs by broth microdilution method; type: functional; conditions: isolate 7, 24 h
Candida tropicalis [31] = assay: Antifungal activity against > 2 x 10^7 CFU/ml Candida tropicalis isolate 7 in antibiotic medium 3 assessed as partial growth after 24 hrs by broth microdilution method; type: functional, organism-based
Candida tropicalis [32] = assay: Antifungal activity Candida tropicalis isolate 4 in RPMI 1640 medium at 12.5 ug/ml after 24 hrs by time-kill assay; type: functional, organism-based
Candida tropicalis [33] = assay: Antifungal activity against 10^5 CFU/ml Candida tropicalis isolate 4 in RPMI 1640 medium at 0.4 to 12.5 ug/ml treated for 24 hrs followed by incubation in drug free medium for 48 hrs by broth microdilution method; type: functional, organism-based
Candida tropicalis [34] = assay: Antifungal activity against 10^5 CFU/ml Candida tropicalis isolate 11 in RPMI 1640 medium at 12.5 ug/ml treated for 48 hrs followed by incubation in drug free medium for 48 hrs by broth microdilution method; type: functional, organism-based
Candida tropicalis [35] = assay: Antifungal activity against 10^5 CFU/ml Candida tropicalis ATCC 750 in RPMI 1640 medium at 0.4 to 12.5 ug/ml treated for 48 hrs followed by incubation in drug free medium for 48 hrs by broth microdilution method; type: functional, organism-based

With `CC[C@H](C)C[C@H](C)CCCCCCCCC(=O)N[C@H]1C[C@@H](O)[C@@H](NCCN)NC(=O)[C@@H]2[C@@H](O)CCN2C(=O)[C@H]([C@H](O)CCN)NC(=O)[C@H]([C@H](O)[C@@H](O)c2ccc(O)cc2)NC(=O)[C@@H]2C[C@@H](O)CN2C(=O)[C@H]([C@@H](C)O)NC1=O` [CASPOFUNGIN] as the molecule, how does the Activity (Candida tropicalis [1]) read?
Its Activity is “inactive”.

What about the Activity (Candida tropicalis [2]) of the same molecule?
Its Activity is “inactive”.

And the MIC (Candida tropicalis [3])?
The MIC was 0.024 µg/mL (≈ 0.022 µM).

And the Activity (Candida tropicalis [4])?
Its Activity is “Active”.

What about the Activity (Candida tropicalis [5]) of the same molecule?
Its Activity is “inactive”.

What about the Activity (Candida tropicalis [6]) of the same molecule?
Its Activity is “inactive”.

And the MIC (Candida tropicalis [7])?
The MIC was 0.024 µg/mL (≈ 0.022 µM).

And the Activity (Candida tropicalis [8])?
The Activity was “inactive”.

And the Activity (Candida tropicalis [9])?
Its Activity is “inactive”.

What about the Activity (Candida tropicalis [10]) of the same molecule?
Its Activity is “inactive”.

What about the Activity (Candida tropicalis [11]) of the same molecule?
Its Activity is “inactive”.

What about the Activity (Candida tropicalis [12]) of the same molecule?
Its Activity is “inactive”.

What about the MIC (Candida tropicalis [13]) of the same molecule?
The MIC was 0.024 µg/mL (≈ 0.022 µM).

And the MIC (Candida tropicalis [14])?
Its MIC is 0.024 µg/mL (≈ 0.022 µM).

And the MIC (Candida tropicalis [15])?
The MIC was 0.024 µg/mL (≈ 0.022 µM).

What about the Activity (Candida tropicalis [16]) of the same molecule?
Its Activity is “inactive”.

And the MIC (Candida tropicalis [17])?
The MIC was 0.024 µg/mL (≈ 0.022 µM).

What about the Activity (Candida tropicalis [18]) of the same molecule?
Its Activity is “inactive”.

And the Activity (Candida tropicalis [19])?
The Activity was “Active”.

What about the MIC (Candida tropicalis [20]) of the same molecule?
Its MIC is 0.024 µg/mL (≈ 0.022 µM).

And the Activity (Candida tropicalis [21])?
Its Activity is “inactive”.

And the Activity (Candida tropicalis [22])?
Its Activity is “Active”.

And the MIC (Candida tropicalis [23])?
Its MIC is 0.024 µg/mL (≈ 0.022 µM).

And the Activity (Candida tropicalis [24])?
The Activity was “inactive”.

What about the Activity (Candida tropicalis [25]) of the same molecule?
The Activity was “inactive”.

What about the MIC (Candida tropicalis [26]) of the same molecule?
The MIC was 0.024 µg/mL (≈ 0.022 µM).

What about the Activity (Candida tropicalis [27]) of the same molecule?
Its Activity is “Active”.

And the MIC (Candida tropicalis [28])?
The MIC was 0.024 µg/mL (≈ 0.022 µM).

And the Activity (Candida tropicalis [29])?
The Activity was “inactive”.

What about the MIC (Candida tropicalis [30]) of the same molecule?
Its MIC is 0.024 µg/mL (≈ 0.022 µM).

And the Activity (Candida tropicalis [31])?
Its Activity is “inactive”.

What about the Activity (Candida tropicalis [32]) of the same molecule?
The Activity was “inactive”.

And the Activity (Candida tropicalis [33])?
The Activity was “inactive”.

And the Activity (Candida tropicalis [34])?
The Activity was “inactive”.

What about the Activity (Candida tropicalis [35]) of the same molecule?
Its Activity is “inactive”.
